Experimental data published in patent publication US20060189693A1, “Methods of treatment with lxr agonists” (priority 2003, published 2006).

Tests used:
LXRβ protein = biological target: T1, LXRβ protein (Homo sapiens, UniProt P55055); settings: 1 μM; over a background reading of 10000 fluorescence units; cited from earlier work
T1 sequence (P55055 1-460): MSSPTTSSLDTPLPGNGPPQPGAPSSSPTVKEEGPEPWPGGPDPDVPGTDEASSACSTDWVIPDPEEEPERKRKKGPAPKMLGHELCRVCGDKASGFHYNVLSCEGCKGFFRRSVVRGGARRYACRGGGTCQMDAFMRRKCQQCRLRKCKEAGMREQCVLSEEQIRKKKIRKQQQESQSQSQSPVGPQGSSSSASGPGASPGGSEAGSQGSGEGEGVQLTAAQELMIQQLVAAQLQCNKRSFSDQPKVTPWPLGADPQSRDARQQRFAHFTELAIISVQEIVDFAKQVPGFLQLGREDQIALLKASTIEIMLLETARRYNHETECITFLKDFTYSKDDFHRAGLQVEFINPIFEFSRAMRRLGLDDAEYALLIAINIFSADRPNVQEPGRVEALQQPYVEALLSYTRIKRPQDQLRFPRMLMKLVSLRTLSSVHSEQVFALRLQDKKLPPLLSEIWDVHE

[1] = tested on: LV mass (cardiac hypertrophy) of aorta-constricted CD-1 mice; experiment: Effect on LV mass in aorta-constricted mice, dose range (Example 4); type: in vivo; parameters: unit not given here
Experimental: Male CD-1 mice (n=7 per group), 20-25 g in weight, were used for the experiment. Each mouse was anaesthetized with isoflurane 1-2%. Each mouse's aorta was exposed between the two renal arteries and was surgically constricted using a 30-gauge needle and 6.0 suture to induce heart growth. Seven days after surgery, baseline echocardiography was performed on each mouse to establish left ventricular mass (“LV mass”). Enalapril was orally administered to the mice at the dose of 10 mg/kg beginning on day 11 (4 days after baseline) and was continued once daily for 10 days. Formula IIa, suspended in 0.5% MC (vehicle), was orally administered to the mice at the doses of 3.0 mg/kg, 10 mg/kg, or 30 mg/kg once a day beginning on day 11. Formula Ia, suspended in 0.5% MC (vehicle), was orally administered to the mice at the dose of 50 mg/kg once a day beginning on day 11. The control group was administered with vehicle (0.5% MC). Repeat echocardiography was conducted on each mouse 14 and 21 days after surgery.

[2] = tested on: LV mass (cardiac hypertrophy) of aorta-constricted CD-1 mice; experiment: Effect on LV mass in aorta-constricted mice (Example 3); type: in vivo
Experimental: Male CD-1 mice (n=7 per group), 20-25 g in weight, were used for the experiment. Each mouse was anaesthetized with isoflurane 1-2%. Each mouse's aorta was exposed between the two renal arteries and was surgically constricted using a 30-gauge needle and 6.0 suture to induce heart growth. Seven days after surgery, baseline echocardiography was performed on each mouse to establish left ventricular mass (“LV mass”). Enalapril, the gold standard in treating cardiac hypertrophy, was orally administered to the mice at the dose of 10 mg/kg beginning on day 11 (4 days after baseline) and was continued once daily for 10 days. The compound of Formula IIa was suspended in 0.5% methylcellulose (MC) solution (vehicle) and was orally administered to the mice at the doses of 10 mg/kg twice a day, beginning on day 11. The control group was administered with vehicle (0.5% MC) beginning on day 11. Repeat echocardiography was conducted on each mouse 14 and 21 days after surgery.

Structure (SMILES): C[C@H](CC[C@@H]1OC1(C)C)[C@H]1CC[C@H]2[C@@H]3CC=C4C[C@@H](O)CC[C@]4(C)[C@H]3CC[C@]12C [24(S), 25-epoxycholesterol]
- reading (fluorescence) (LXRβ protein): 20000 fluorescence units

Structure (SMILES): CCOC(=O)[C@H](CCc1ccccc1)N[C@@H](C)C(=O)N1CCC[C@H]1C(=O)O [Enalapril, reference compound]
- Mean ± SE LV Mass ([1]; Enalapril 10 mg/kg once daily oral from day 11, 14 days after surgery): 95.1 ± 3.90
- Mean ± SE LV Mass ([1]; Enalapril 10 mg/kg once daily oral from day 11, 21 days after surgery): 91.4 ± 2.48
- Mean ± SE LV Mass ([1]; Enalapril group 10 mg/kg once daily oral, 7 days after surgery (baseline, before dosing)): 101.02 ± 2.79
- Mean ± SE LV Mass ([2]; 10 mg/kg once daily oral from day 11, 14 days after surgery): 84.90 ± 1.11
- LV Mass compared to vehicle ([2]; 10 mg/kg once daily oral, days 14 and 21, p<0.05): significantly (p<0.05) reduced LV Mass
- LV Mass compared to baseline hypertrophy (reversal of pathology) ([2]; 10 mg/kg once daily oral, p<0.05): significantly (p<0.05) reversed the pathology
- Mean ± SE LV Mass ([2]; Enalapril group 10 mg/kg once daily oral, 7 days after surgery (baseline, before dosing from day 11)): 94.09 ± 1.950

Structure (SMILES): O=C(O)Cc1cccc(OCCCN(Cc2cccc(C(F)(F)F)c2Cl)CC(c2ccccc2)c2ccccc2)c1 [Formula IIa, 2-(3-{3-[[2-Chloro-3-(Trifluoromethyl)Benzyl](2,2-Diphenylethyl)Amino]Propoxy}-Phenyl)Acetic Acid]
- Mean ± SE LV Mass ([1]; 3 mg/kg once a day oral from day 11, 14 days after surgery): 106.75 ± 2.43
- Mean ± SE LV Mass ([1]; 3 mg/kg once a day oral from day 11, 21 days after surgery): 106.54 ± 2.56
- Mean ± SE LV Mass ([1]; 3 mg/kg once a day oral group, 7 days after surgery (baseline, before dosing)): 98.9 ± 4.59
- Mean ± SE LV Mass ([1]; 10 mg/kg once a day oral from day 11, 14 days after surgery): 96.31 ± 2.70
- Mean ± SE LV Mass ([1]; 10 mg/kg once a day oral from day 11, 21 days after surgery): 95.5 ± 2.97
- Mean ± SE LV Mass ([1]; 10 mg/kg once a day oral group, 7 days after surgery (baseline, before dosing)): 98.01 ± 2.39
- Mean ± SE LV Mass ([1]; 30 mg/kg once a day oral from day 11, 14 days after surgery): 101.77 ± 2.25
- Mean ± SE LV Mass ([1]; 30 mg/kg once a day oral from day 11, 21 days after surgery): 101.99 ± 4.00
- Mean ± SE LV Mass ([1]; 30 mg/kg once a day oral group, 7 days after surgery (baseline, before dosing)): 102.42 ± 2.27
- Mean ± SE LV Mass ([2]; 10 mg/kg BID oral from day 11, 14 days after surgery): 99.45 ± 1.98
- Mean ± SE LV Mass ([2]; 10 mg/kg BID oral from day 11, 21 days after surgery): 100.66 ± 2.43
- further increase in LV Mass ([2]; 10 mg/kg b.i.d. oral): prevented any further increase in LV Mass
- LV Mass compared to vehicle ([2]; 10 mg/kg b.i.d. oral, 14 and 21 days after surgery, p<0.05): statistically significant reduction
- Mean ± SE LV Mass ([2]; Formula IIa group 10 mg/kg BID oral, 7 days after surgery (baseline, before dosing from day 11)): 100.88 ± 2.77

Structure (SMILES): O=S(=O)(c1ccccc1)N(CC(F)(F)F)c1ccc(C(O)(C(F)(F)F)C(F)(F)F)cc1 [Formula Ia, N-(2,2,2-Trifluoroethyl)-N-[4-(2,2,2-Trifluoro-1-Hydroxy-1-Trifluoromethyl-Ethyl)-Phenyl]-Benzenesulfonamide]
- Mean ± SE LV Mass ([1]; 50 mg/kg once a day oral from day 11, 14 days after surgery): 106.56 ± 3.86
- Mean ± SE LV Mass ([1]; 50 mg/kg once a day oral group, 7 days after surgery (baseline, before dosing)): 101.85 ± 4.75
